Reference: patent US20210386841A1, “COMPOSITIONS FOR TRANSFECTING mRNA INTO A CELL AND THEIR APPLICATIONS” (POLYPLUS TRANSFECTION, priority 2018, published 2021)

Columns and labels:
[1] = system: Jurkat Clone E6-1 human T lymphoblast cells; assay: eGFP mRNA transfection, Jurkat cells (96-well); type: cell-based; conditions: co-lipid DOPE, ratio compound/co-lipid 1/2; 150 ng eGFP mRNA, 1 μL of 1 mM formulation; 24 h, flow cytometry
Description: Jurkat Clone E6-1 (ATCC® TIB-152™) human T lymphoblast cells were grown in RPMI-1640 (LONZA) with 10% of FBS (EUROBIO) and supplemented with 2 mM Glutamine (LONZA), 100 U/mL of penicillin and 100 μg/mL of streptomycin (LONZA) at 37° C. in a 5% CO2 in air atmosphere.
(§1) mRNA eGFP (996 nt, reference L-6101) from TriLink Technologies was used for the in vitro transfection experiments and expressed enhanced green fluorescent protein which is a common reporter gene (eGFP). This mRNA was capped with a Cap 0, polyadenylated and modified with 5-methylcytidine and pseudo-uridine.
(§2) One day before transfection, Caco-2, THP-1 or BJ Cells were seeded at 10 000, 25 000, or 5 000 cells per well (96-well plate format), respectively, in 125 μL of their respective complete medium and incubated at 37° C. in a 5% CO2 in air atmosphere. For Jurkat cells, 25 000 cells were seeded per well prior transfection. On the day of transfection 150 ng of mRNA was added in 11.5 μL of 5% glucose solution, mixed with a vortex and incubated for 5 minutes at rt. Then, 1 μL of 1 mM cationic liposomal formulation was added onto the diluted mRNA, mixed with a vortex and incubated for 15 minutes at rt. The formulated mRNA solution (12.5 μL) was added into the well and the plate was incubated for 24 hours at 37° C. in a 5% CO2 in air atmosphere.
(§3) For the GFP expression analysis, the cell culture medium was removed for the adherent cells and 50 μL of trypsin-EDTA (1×, Lonza) was added and the plate was incubated for 5 minutes at 37° C. 150 μL of complete medium were added to neutralize the trypsin, and the GFP expression was analysed (2000 events) by flow cytometry (Exc 488 nm, Em 520 nm) using a Guava easyCyte 6HT cytometer (Millipore).
(§4) All these new liposomal formulations (Table 1) were assessed to deliver mRNA expressing an enhanced green fluorescent protein (eGFP) as reporter gene in order to determine the gene expression and the transfection efficiency (Table 2). mRNA eGFP capped with a Cap 0 in 5′-end, polyadenylated in 3′-end and modified with 5-methylcytidine and pseudo-uridine was used in the transfection assay. The transfection assay was performed as described in the Experimental section where 150 ng of mRNA eGFP was complexed with 1 μL of 1 mM cationic liposomal formulations in a 5% glucose solution before the addition on the cells. One day post-transfection, the eGFP expression was analyzed by flow cytometry to determine the percentage of transfection. Four different cell lines were used in this assay from easy to transfect cells to hard to transfect cells with plasmid DNA, including human BJ skin fibroblast cells, THP-1 human peripheral blood monocytes, Caco-2 human colon epithelial cells and Jurkat Clone E6-1 human T lymphoblast cells, respectively.

[2] = system: Caco-2 human colon epithelial cells; assay: eGFP mRNA transfection, Caco-2 cells (96-well); type: cell-based; conditions: co-lipid DOPE, ratio 1/2; 150 ng eGFP mRNA; 24 h
Description: Caco-2 (ATCC® HTB-37™) human colon epithelial cells were grown in DMEM 4.5 g/L glucose with 20% FBS supplemented with 1% non-essential amino acids, 1 mM sodium pyruvate, 2 mM glutamine and 100 U/mL of penicillin and 100 μg/mL of streptomycin at 37° C. in a 5% CO2 in air atmosphere.
as §1, §2, §3, §4

[3] = system: THP-1 human peripheral blood monocyte cells; assay: eGFP mRNA transfection, THP-1 cells (96-well); type: cell-based; conditions: co-lipid DOPE, ratio 1/2; 150 ng eGFP mRNA; 24 h
Description: THP-1 (ATCC® TIB-202™) human peripheral blood monocyte cells were grown in RPMI-1640 with 10% FBS and supplemented with 10 mM HEPES buffer, 1 mM sodium pyruvate, 0.05 mM 2-mercaptoethanol, 2 mM glutamine, 100 U/mL of penicillin and 100 μg/mL of streptomycin at 37° C. in a 5% CO2 in air atmosphere.
as §1, §2, §3, §4

[4] = system: BJ human skin fibroblast cells; assay: eGFP mRNA transfection, BJ cells (96-well); type: cell-based; conditions: co-lipid DOPE, ratio 1/2; 150 ng eGFP mRNA; 24 h
Description: BJ (ATCC® CRL-2522™) human skin fibroblast cells were grown in Eagle's Minimum Essential Medium with 10% FBS and supplemented with 1% non-essential amino acids, 1 mM sodium pyruvate, 2 mM glutamine and 100 U/mL of penicillin and 100 μg/mL of streptomycin at 37° C. in a 5% CO2 in air atmosphere.
as §1, §2, §3, §4

[5] = system: BJ, THP-1, Caco-2 and Jurkat cells; assay: eGFP mRNA transfection, overall statements on the four cell lines; type: cell-based, human; conditions: formulated with co-lipid DOPE or DPyPE
Description: as §1, §2, §3, §4

Row | SMILES | Transfection efficiency (eGFP %) CaCO2 [2] | Transfection efficiency (eGFP %) Jurkat [1] | Transfection efficiency (eGFP %) THP-1 [3] | Transfection efficiency (eGFP %) BJ [4] | transfection activity (in words) [5]
1 | CCCCCCCCCCCCCCC(CCCCCCCCCCCCCC)[n+]1ccn(C)c1.[Cl-] [Compound W4.3, 1-methyl-3-(nonacosan-15-yl)-1H-imidazol-3-ium chloride] | 5-10% | 0-1% | 30-40% | 50-60% | reduced transfection activity
2 | CCCCCCCCCCCCCCCCC(CCCCCCCCCCCCCCCC)CCC[n+]1ccn(C)c1 [Compound W29.5, 1-methyl-3-(4-hexadecylicosyl)-1H-imidazol-3-ium chloride] | – | 10-15% | 30-40% | – | without really affecting the transfection activity
3 | CCCCCCCC/C=C\CCCCCCCCC(CCCCC(CCCCCCCCCCCCCC)CCCCCCCCCCCCCC)[n+]1ccn(CC)c1.[Cl-] (stereo not shown) [Compound W27.7, 1-ethyl-3-(24-tetradecyloctatriacont-9-en-19-yl)-1H-imidazol-3-ium chloride] | 65-75% | 5-10% | 40-50% | 90-95% | without really affecting the transfection activity
4 | CCCCCCCCCCCCCCCCCCC(CCCCCCCCCC)[n+]1ccn(C)c1.[Cl-] (stereo not shown) [Compound W6.3, 1-methyl-3-(nonacosan-11-yl)-1H-imidazol-3-ium chloride] | 5-10% | 20-25% | 30-40% | 80-85% | –
5 | CCCCCCC/C=C\CCCCCCCCC(CCCCCCCCCCCCCC)[n+]1ccn(C)c1 (stereo not shown) [Compound W2.5] | 5-10% | 1-5% | 70-75% | 70-85% | –
6 | CCCCCCC/C=C\CCCCCCCCC(CCCCCCCCCCCCCCCCCC)[n+]1ccn(C)c1.[Cl-] (stereo not shown) [Compound W3.5, 1-methyl-3-(hexatriacont-8-en-18-yl)-1H-imidazol-3-ium chloride] | 35-40% | 10-15% | 35-45% | 80-95% | –
7 | CCCCCCCCCCCCCCC(CCCCCCCCCCCCCC)CCCCC(CCCCCCCCCCCCCC)[n+]1ccn(CCO)c1.[Cl-] (stereo not shown) [Compound W26.7, 1-(2-hydroxyethyl)-3-(20-tetradecyltetratriacontan-15-yl)-1H-imidazol-3-ium chloride] | 50-55% | 10-15% | 70-80% | 90-95% | without really affecting the transfection activity
8 | CCCCCCCCCCCCCCCCCCC(CCCCC(CCCCCCCCCCCCCC)CCCCCCCCCCCCCC)[n+]1ccn(C)c1.[Cl-] (stereo not shown) [Compound W11.7, 1-methyl-3-(24-tetradecyloctatriacontan-19-yl)-1H-imidazol-3-ium chloride] | 35-45% | 15-25% | 80-90% | 90-95% | –

Second part, led by results:

Row | Transfection efficiency (eGFP %) CaCO2 [2] | SMILES | Transfection efficiency (eGFP %) Jurkat [1] | Transfection efficiency (eGFP %) THP-1 [3] | Transfection efficiency (eGFP %) BJ [4] | transfection activity (in words) [5]
9 | 45-55% | CCCCCCCCCCCCCCCCCCC(CCCCC(CCCCCCCCCCCCCC)CCCCCCCCCCCCCC)[n+]1ccn(CCO)c1.[Cl-] (stereo not shown) [Compound W25.7, 1-(2-hydroxyethyl)-3-(24-tetradecyloctatriacontan-19-yl)-1H-imidazol-3-ium chloride] | 25-35% | 80-85% | 90-95% | without really affecting the transfection activity
10 | 5-10% | CCCCCCCCCCCCCCCCC(CCCCCCCCCCCCCCCC)[n+]1ccn(C)c1.[Cl-] [Compound W5.3, 1-methyl-3-(tritriacontan-17-yl)-1H-imidazol-3-ium chloride] | 0-2% | 50-60% | 60-70% | reduced transfection activity
11 | 40-45% | CCCCCCCCCCCCCCCCCCC(CCCC(CCCCCCCCCCCCCC)CCCCCCCCCCCCCC)[n+]1ccn(C)c1.[Cl-] (stereo not shown) [Compound W28.7, 1-methyl-3-(15-tetradecylheptatriacontan-19-yl)-1H-imidazol-3-ium chloride] | 15-25% | 80-85% | 90-95% | without really affecting the transfection activity
